Reference: publication PMC12336439 (Archiv Der Pharmazie, 2025)
Several values for one entry are separate records, joined by “and”; a condition that tells them apart may be missing. Equal entries are not always repeated. Where two headings read alike, the source gives them in different places.

Columns and labels:
USP7asoc [1] = target: T1, USP7asoc (Homo sapiens, UniProt Q93009, C300S/C315S/C334S/C478S/C488S/C510S); parameters: method as in PMID 40165995; conditions: 24 h incubation at 20°C, ratio 1:31.25; spectra reported previously; cited from earlier work
T1 construct: (208‐560, C300/315/334/448/478/510S); made in house
T1 sequence (Q93009 with tags, fused parts or gaps C300S/C315S/C334S/C478S/C488S/C510S): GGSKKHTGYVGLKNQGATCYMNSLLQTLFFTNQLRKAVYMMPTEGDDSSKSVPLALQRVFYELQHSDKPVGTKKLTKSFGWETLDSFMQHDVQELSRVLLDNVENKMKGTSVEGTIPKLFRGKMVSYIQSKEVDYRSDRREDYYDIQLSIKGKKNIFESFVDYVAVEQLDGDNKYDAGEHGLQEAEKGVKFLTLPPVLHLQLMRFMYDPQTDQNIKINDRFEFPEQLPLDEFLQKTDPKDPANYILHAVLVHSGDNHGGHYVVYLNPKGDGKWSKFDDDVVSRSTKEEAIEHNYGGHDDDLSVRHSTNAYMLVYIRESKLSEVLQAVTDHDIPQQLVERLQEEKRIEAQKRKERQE

USP7 [2] = target: T2, USP7 (Homo sapiens, UniProt Q93009); parameters: method as in PMID 40165995; conditions: 24 h incubation at 20°C, ratio 1:31.25; spectra reported previously; cited from earlier work
T2 construct: USP7 catalytic domain (USP7CD) (208‐560); made in house
T2 sequence (Q93009 with tags, fused parts or gaps): as the sequence (Q93009 with tags, fused parts or gaps C300S/C315S/C334S/C478S/C488S/C510S) above, with S96C, S111C, S130C, S274C, S284C, S306C counted along it

[3] = target: T3, USP7asoc (active site only cysteine) (Homo sapiens, UniProt Q93009, C300S/C315S/C334S/C478S/C488S/C510S); test: Differential scanning fluorimetry (DSF), melting temperature shift of USP7asoc mutant; type: binding; conditions: 8 µM protein, 250 µM compound (1:31.25)
T3 construct: (208‐560, C300/315/334/448/478/510S); made in house
T3 sequence (Q93009 with tags, fused parts or gaps C300S/C315S/C334S/C478S/C488S/C510S): as the sequence (Q93009 with tags, fused parts or gaps C300S/C315S/C334S/C478S/C488S/C510S) above
Description: USP7asoc only retains the catalytic Cys223 while all the other six cysteines are mutated to serine. DSF was selected for initial assessment since it is an efficient and rapid primary screening method readily available to our lab. […] An important consideration when assessing covalent inhibitors is the time dependence of covalent target occupancy and thus potency, which is determined by the reaction kinetics of the covalent binding event. To allow for drawing conclusions on compounds with slower reaction kinetics, incubation times of 30 min, 4 h, and 24 h at 20°C were chosen for the DSF screen with USP7 (Table 1 and Figures 2 and 3). The threshold at which compounds were considered (de‐)stabilizers was defined at 0.5°C. In parallel, the intrinsic reactivity of a set of representative compounds was evaluated in a glutathione reactivity assay. […] The expression and purification of USP7 catalytic domain (USP7CD) (208‐560) and USP7asoc (active site only cysteine) by using a pET24a(+)_HLT_USP7 construct were performed as previously described. […] For the USP7asoc, six of the seven cysteines are mutated to serines (208‐560, C300/315/334/448/478/510S). All utilized protein sequences are depicted in Supporting Information S2: Table S.3.1. The melting temperatures of USP7 and USP7asoc in the presence or absence of fragments were determined by DSF on a Qiagen Rotor‐Q Model‐5‐Plex HRM real‐time PCR instrument (Qiagen, Hilden, Germany). SYPRO Orange (Life Technologies Corporation, Eugene, OR, USA) was used as a fluorescent dye at a final concentration of 5x. The protein concentration was 8 µM, and the final compound concentration was 250 µM, corresponding to a protein‐to‐compound ratio of 1:31.25. All compounds were dissolved in dimethyl sulfoxide (DMSO) and the proteins in Tris buffer (25 mM Tris pH 8.0, 150 mM NaCl, 5 mM TCEP, 5% (v/v) DMSO). All measurements were performed after 30 min, 4 h, and 24 h of incubation and at least in triplicate. DSF experiments were carried out with a constant heating rate of 270°C/h. The temperature was ramped from 28°C to 60°C–70°C with excitation and emission filters set at 470 nm and 610 nm, respectively. The melting temperatures (T m) of USP7 and USP7asoc were determined from the maxima of the first derivatives of the melting curves in OriginPro2020 (OriginLab, Northampton, MA, USA). The ∆T m was calculated by subtraction of the T m of the protein sample with pure DMSO from the T m of the protein sample mixed with compound. Error propagation was used to average multiple runs for a compound. A compound was considered to be a hit if the shift in the ∆T m was at least 0.50°C [55].

USP7 [4] = target: T2, USP7; test: Differential scanning fluorimetry (DSF), melting temperature shift of USP7; type: binding; conditions: 8 µM protein, 250 µM compound (1:31.25)
Source text: The influence of the synthesized compounds on the melting temperature (T m) of USP7 and its mutant USP7asoc (active site only cysteine) was investigated by DSF. USP7asoc only retains the catalytic Cys223 while all the other six cysteines are mutated to serine. DSF was selected for initial assessment since it is an efficient and rapid primary screening method readily available to our lab.
An important consideration when assessing covalent inhibitors is the time dependence of covalent target occupancy and thus potency, which is determined by the reaction kinetics of the covalent binding event. To allow for drawing conclusions on compounds with slower reaction kinetics, incubation times of 30 min, 4 h, and 24 h at 20°C were chosen for the DSF screen with USP7 (Table 1 and Figures 2 and 3). The threshold at which compounds were considered (de‐)stabilizers was defined at 0.5°C. In parallel, the intrinsic reactivity of a set of representative compounds was evaluated in a glutathione reactivity assay. […] Data obtained from the GSH reactivity studies are shown in Supporting Information S2: Table S2.1 and Figures S2.1–2.3.
The melting temperatures of USP7 and USP7asoc in the presence or absence of fragments were determined by DSF on a Qiagen Rotor‐Q Model‐5‐Plex HRM real‐time PCR instrument (Qiagen, Hilden, Germany). SYPRO Orange (Life Technologies Corporation, Eugene, OR, USA) was used as a fluorescent dye at a final concentration of 5x. The protein concentration was 8 µM, and the final compound concentration was 250 µM, corresponding to a protein‐to‐compound ratio of 1:31.25. All compounds were dissolved in dimethyl sulfoxide (DMSO) and the proteins in Tris buffer (25 mM Tris pH 8.0, 150 mM NaCl, 5 mM TCEP, 5% (v/v) DMSO). All measurements were performed after 30 min, 4 h, and 24 h of incubation and at least in triplicate. DSF experiments were carried out with a constant heating rate of 270°C/h. The temperature was ramped from 28°C to 60°C–70°C with excitation and emission filters set at 470 nm and 610 nm, respectively. The melting temperatures (T m) of USP7 and USP7asoc were determined from the maxima of the first derivatives of the melting curves in OriginPro2020 (OriginLab, Northampton, MA, USA). The ∆T m was calculated by subtraction of the T m of the protein sample with pure DMSO from the T m of the protein sample mixed with compound. Error propagation was used to average multiple runs for a compound. A compound was considered to be a hit if the shift in the ∆T m was at least 0.50°C [55].

USP7 [5] = target: T2, USP7; parameters: method as in PMID 40165995; conditions: hit from earlier screen of covalent kinase inhibitor library; cited from earlier work
[6] = target: T4, USP7cd (USP7 catalytic domain) (Homo sapiens, UniProt Q93009); test: Ub-AMC enzyme activity assay, IC50 determination; type: biochemical; conditions: 10 nM USP7cd, 500 nM Ub-AMC, 24 h pre-incubation at 20°C
T4 construct: USP7 catalytic domain (USP7CD) (208‐560); made in house
T4 sequence (Q93009 with tags, fused parts or gaps): as the sequence (Q93009 with tags, fused parts or gaps C300S/C315S/C334S/C478S/C488S/C510S) above, with S96C, S111C, S130C, S274C, S284C, S306C counted along it
Description: Therefore, USP7 was incubated for 24 h with ten different compound concentrations, and IC50 values were then obtained with a fluorescent DUB substrate (Ub‐AMC) (Figure 9A–F). The pre‐incubation times were chosen to account for the slow covalent binding kinetics observed in the previous experiments.
The cleavage activity of USP7cd in the presence or absence of inhibitors was measured using Ubiquitin‐Aminomethylcoumarin (Ub‐AMC) (Enzo Life Sciences GmbH, Lörrach, Germany) as a fluorogenic substrate. The fluorescence was monitored using the CLARIOstar plate reader (BMG Labtech GmbH, Ortenberg, Germany) at 25°C at 360 nm excitation and 460 nm emission wavelengths. […] Each measurement was performed at least twice in duplicate. […] Ub‐AMC was added to a final concentration of 500 nM, and the fluorescence was measured after 1 h. The normalized dose‐response semi‐logarithmic curves were fitted using OriginPro2021 and the four‐parameter logistic function.
Different concentrations of compounds were pre-incubated with USP7 for 24 h at 20 °C in a rotating shaker in 25 mM Tris pH 8.0, 150mM NaCl, 5 mM TCEP supplemented with 0.2 mg/mL bovine serum albumin (BSA). Fluorescence was measured after 1 h of the addition of Ub-AMC. The dose response semi-logarithmic curves were fitted using OriginPro2021 and the four-parameter logistic function.

USP7 [7] = target: T2, USP7; test: Intact protein MS (UHPLC-ESI-MS), covalent modification of USP7; type: binding; conditions: 24 h incubation at 20°C, protein-to-compound ratio 1:31.25
Description: The DSF results described above were validated by UHPLC‐ESI‐MS to verify possible covalent binding through a corresponding mass shift. Intact protein MS is an important screening method in irreversible‐covalent hit identification and is especially suitable for covalent fragment‐based drug discovery (FBDD). It allows for the identification of covalent binders by detecting covalent protein‐compound adducts, thus making use of the stability of the covalent bond.
USP7 was prepared in Tris buffer (25 mM Tris pH 8.0, 150 mM NaCl, 5 mM TCEP) with a protein‐to‐compound ratio of 1:31.25 and 5% (v/v) DMSO. The protein‐compound mixtures were all incubated at 20°C for 24 h on a rotating shaker. The analysis of intact protein mass was carried out using UHPLC‐ESI‐MS measurements, with data acquisition and data analysis as previously described.

USP7asoc [8] = target: T1, USP7asoc; test: Intact protein MS (UHPLC-ESI-MS), covalent modification of USP7asoc; type: binding; conditions: 24 h incubation at 20°C, protein-to-compound ratio 1:31.25
Description: The DSF results described above were validated by UHPLC‐ESI‐MS to verify possible covalent binding through a corresponding mass shift. Intact protein MS is an important screening method in irreversible‐covalent hit identification and is especially suitable for covalent fragment‐based drug discovery (FBDD). It allows for the identification of covalent binders by detecting covalent protein‐compound adducts, thus making use of the stability of the covalent bond. USP7 was prepared in Tris buffer (25 mM Tris pH 8.0, 150 mM NaCl, 5 mM TCEP) with a protein‐to‐compound ratio of 1:31.25 and 5% (v/v) DMSO. The protein‐compound mixtures were all incubated at 20°C for 24 h on a rotating shaker. The analysis of intact protein mass was carried out using UHPLC‐ESI‐MS measurements, with data acquisition and data analysis as previously described.

| ∆T m ± SD USP7asoc ([3]; 30 min incubation at 20°C) | ∆T m ± SD USP7asoc ([3]; 4 h incubation at 20°C) | ∆T m ± SD USP7asoc ([3]; 24 h incubation at 20°C) | ∆T m ± SD USP7 (USP7 [4]; 30 min incubation at 20°C) | ∆T m ± SD USP7 (USP7 [4]; 4 h incubation at 20°C) | ∆T m ± SD USP7 (USP7 [4]; 24 h incubation at 20°C) | IC50 ([6]; read-out: IC50 USP7cd) | IC50 ([6]; supplement table, read-out: Biological Activity (IC50)) | Compound | protein species in deconvoluted mass spectrum of USP7asoc (USP7asoc [1]) | protein species in deconvoluted mass spectrum of USP7 (USP7 [2]) | temperature decrease with USP7 in DSF (USP7 [5]) | protein species in deconvoluted mass spectrum of USP7 (USP7 [7]) | protein species in deconvoluted mass spectrum of USP7asoc (USP7asoc [8]) |
| --- | --- | --- | --- | --- | --- | --- | --- | --- | --- | --- | --- | --- | --- |
| 0.10 ± 0.27 °C | 0.10 ± 0.09 °C | 0.10 ± 0.09 °C | 0.20 ± 0.09 °C | 0.45 ± 0 °C | 0.20 ± 0.09 °C |  |  | Cn1cc(-c2cccc3cnc(Nc4nc(Cl)ccc4[N+](=O)[O-])cc23)cn1 [8a, N‐(6‐Chloro‐3‐nitropyridin‐2‐yl)‐5‐(1‐methyl‐1H‐pyrazol‐4‐yl)isoquinolin‐3‐amine] | unmodified protein species as the main peak | unmodified and mono‐arylated protein species were visible with nearly the same intensity |  |  |  |
| –0.10 ± 0.09 °C | –0.25 ± 0.09 °C |  | –0.13 ± 0.08 °C | –0.23 ± 0.06 °C |  | 43.3 µM and 43 µM | 48.2 ± 6.89 µM | Cn1cc(-c2cccc3cnc(Nc4nc(F)ccc4[N+](=O)[O-])cc23)cn1 [7a, N‐(6‐Fluoro‐3‐nitropyridin‐2‐yl)‐5‐(1‐methyl‐1H‐pyrazol‐4‐yl)isoquinolin‐3‐amine] | single covalent modification as the main peak | mono‐arylated protein species as the main peak | –4 °C |  |  |
| 0.05 ± 0.09 °C | 0.25 ± 0.12 °C | 0.33 ± 0.08 °C | –0.15 ± 0.12 °C | 0.15 ± 0 °C | 0.15 ± 0 °C |  |  | CCn1cc(-c2cccc3cnc(Nc4nc(Cl)ccc4[N+](=O)[O-])cc23)cn1 [8c, N‐(6‐Chloro‐3‐nitropyridin‐2‐yl)‐5‐(1‐ethyl‐1H‐pyrazol‐4‐yl)isoquinolin‐3‐amine] |  |  |  | only unmodified USP7 and USP7asoc were detected with a smaller peak corresponding to the single‐arylated protein species | only unmodified USP7 and USP7asoc were detected with a smaller peak corresponding to the single‐arylated protein species |
| 0.10 ± 0.17 °C | –0.15 ± 0.15 °C | –0.15 ± 0.12 °C | 0.05 ± 0.09 °C |  | –0.03 ± 0.11 °C |  |  | O=[N+]([O-])c1ccc(Cl)nc1Nc1cc2c(-c3ccc(-c4ccncc4)cc3)cccc2cn1 [8i, N‐(6‐Chloro‐3‐nitropyridin‐2‐yl)‐5‐[4‐(pyridin‐4‐yl)phenyl]isoquinolin‐3‐amine] |  |  |  | unmodified USP7 and USP7asoc as the main peak | unmodified USP7 and USP7asoc as the main peak |
| 0.63 °C and 0.63 ± 0.07 °C | 0.38 ± 0.08 °C | 0.40 ± 0.17 °C | 0.25 ± 0.12 °C | 0.30 ± 0 °C | 0.25 ± 0.09 °C |  |  | O=[N+]([O-])c1ccc(Cl)nc1Nc1cc2c(-c3ccc4ccccc4c3)cccc2cn1 [8g, N‐(6‐Chloro‐3‐nitropyridin‐2‐yl)‐5‐(naphthalen‐2‐yl)isoquinolin‐3‐amine] |  |  |  | only unmodified USP7 and USP7asoc were detected | only unmodified USP7 and USP7asoc were detected |
